Assay results taken from PubChem BioAssay (NCI).
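Cells were grown in 96-well plates and exposed to each compound for 48 hours at five concentrations; endpoints were interpolated linearly between bracketing concentrations, or set to the highest concentration if not reached. GI50 = concentration required for 50% inhibition of growth. TGI: concentration producing complete growth inhibition.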

What was measured:
Assay in all cases: NCI-60 cell line screen, 48 h; in the data active means GI50 below about 0.43 µM; inactive means the rest
ACHN renal = test system: ACHN renal
HCC-2998 colon = test system: HCC-2998 colon
SK-MEL-5 melanoma = test system: SK-MEL-5 melanoma
T-47D breast = test system: T-47D breast
M14 melanoma = test system: M14 melanoma
CAKI-1 renal = test system: CAKI-1 renal
SW-620 colon = test system: SW-620 colon
OVCAR-8 ovarian = test system: OVCAR-8 ovarian
SK-MEL-2 melanoma = test system: SK-MEL-2 melanoma
U251 CNS = test system: U251 CNS
786-0 renal = test system: 786-0 renal
MDA-N = test system: MDA-N
SNB-75 CNS = test system: SNB-75 CNS
LOX IMVI melanoma = test system: LOX IMVI melanoma
CCRF-CEM leukemia = test system: CCRF-CEM leukemia
NCI-H460 lung = test system: NCI-H460 lung
K-562 leukemia = test system: K-562 leukemia
IGROV1 ovarian = test system: IGROV1 ovarian
SN12C renal = test system: SN12C renal
COLO 205 colon = test system: COLO 205 colon
HOP-92 NSCLC = test system: HOP-92 NSCLC
KM12 colon = test system: KM12 colon
MOLT-4 leukemia = test system: MOLT-4 leukemia
HCT-15 colon = test system: HCT-15 colon
SNB-19 CNS = test system: SNB-19 CNS
EKVX NSCLC = test system: EKVX NSCLC
UO-31 renal = test system: UO-31 renal
OVCAR-3 ovarian = test system: OVCAR-3 ovarian
PC-3 prostate = test system: PC-3 prostate
A549 NSCLC = test system: A549 NSCLC
SK-MEL-28 melanoma = test system: SK-MEL-28 melanoma
TK-10 renal = test system: TK-10 renal
OVCAR-4 ovarian = test system: OVCAR-4 ovarian
MDA-MB-435 = test system: MDA-MB-435
RPMI-8226 leukemia = test system: RPMI-8226 leukemia
BT-549 breast = test system: BT-549 breast
OVCAR-5 ovarian = test system: OVCAR-5 ovarian
MDA-MB-231 breast = test system: MDA-MB-231 breast
A498 renal = test system: A498 renal
UACC-257 melanoma = test system: UACC-257 melanoma
SF-295 CNS = test system: SF-295 CNS
NCI-H522 lung = test system: NCI-H522 lung
SF-268 CNS = test system: SF-268 CNS
NCI-H226 lung = test system: NCI-H226 lung
RXF 393 renal = test system: RXF 393 renal
NCI-H23 lung = test system: NCI-H23 lung
NCI/ADR-RES ovarian = test system: NCI/ADR-RES ovarian
HL-60(TB) leukemia = test system: HL-60(TB) leukemia
MCF7 breast = test system: MCF7 breast
HOP-62 NSCLC = test system: HOP-62 NSCLC
MALME-3M melanoma = test system: MALME-3M melanoma
HCT-116 colon = test system: HCT-116 colon

CCCCCCCCCCCCC(O)C1CCC(C(O)CCCCCCC(O)CCCCCCCC2=CC(C)OC2=O)O1 (configuration not stated)
83 µM: TGI (RXF 393 renal)
39.8 µM: TGI (LOX IMVI melanoma)
72.1 µM: TGI (HOP-92 NSCLC)
62.8 µM: TGI (HL-60(TB) leukemia)
82.5 µM: TGI (HCC-2998 colon)
22.3 µM: TGI (RPMI-8226 leukemia)
79.9 µM: TGI (CCRF-CEM leukemia)
71.7 µM: TGI (MDA-N)
33 µM: TGI (MOLT-4 leukemia)
40.6 µM: TGI (K-562 leukemia)
inactive: GI50 (ACHN renal) 18.9 µM | GI50 (T-47D breast) 14.8 µM | GI50 (SW-620 colon) 45.8 µM | GI50 (SNB-75 CNS) 74.5 µM | GI50 (CCRF-CEM leukemia) 15.4 µM | GI50 (MOLT-4 leukemia) 3.17 µM | GI50 (EKVX NSCLC) 23 µM | GI50 (UO-31 renal) 17 µM | GI50 (A549 NSCLC) 21.7 µM | GI50 (MDA-MB-435) 27 µM | GI50 (RPMI-8226 leukemia) 2.05 µM | GI50 (BT-549 breast) 34.6 µM | GI50 (OVCAR-5 ovarian) > 100 µM | GI50 (UACC-257 melanoma) 12.1 µM | GI50 (SF-295 CNS) 17.5 µM | GI50 (SF-268 CNS) 41.2 µM | GI50 (NCI-H23 lung) 13.3 µM | GI50 (NCI/ADR-RES ovarian) 31.5 µM | GI50 (HL-60(TB) leukemia) 0.852 µM | GI50 (MCF7 breast) 23.6 µM
35 µM: TGI (UO-31 renal)
71.9 µM: TGI (CAKI-1 renal)
> 100 µM: TGI (ACHN renal) | TGI (T-47D breast) | TGI (SW-620 colon) | TGI (OVCAR-8 ovarian) | TGI (U251 CNS) | TGI (786-0 renal) | TGI (SNB-75 CNS) | TGI (NCI-H460 lung) | TGI (IGROV1 ovarian) | TGI (KM12 colon) | TGI (HCT-15 colon) | TGI (SNB-19 CNS) | TGI (EKVX NSCLC) | TGI (A549 NSCLC) | TGI (SK-MEL-28 melanoma) | TGI (TK-10 renal) | TGI (OVCAR-4 ovarian) | TGI (MDA-MB-435) | TGI (BT-549 breast) | TGI (OVCAR-5 ovarian) | TGI (MDA-MB-231 breast) | TGI (A498 renal) | TGI (SF-295 CNS) | TGI (SF-268 CNS) | TGI (NCI-H226 lung) | TGI (NCI-H23 lung) | TGI (NCI/ADR-RES ovarian) | TGI (MCF7 breast) | TGI (HOP-62 NSCLC) | TGI (HCT-116 colon)
22.2 µM: TGI (SK-MEL-5 melanoma)
90.7 µM: TGI (PC-3 prostate)
83.1 µM: TGI (SN12C renal)
85.9 µM: TGI (UACC-257 melanoma)
56.7 µM: TGI (MALME-3M melanoma)
45.7 µM: TGI (M14 melanoma) | TGI (OVCAR-3 ovarian)
56.9 µM: TGI (NCI-H522 lung)
61.1 µM: TGI (SK-MEL-2 melanoma)
44.2 µM: TGI (COLO 205 colon)
